# Results taken from US5800838A, “Composition that inhibits or destroys at least one unicellular living organism containing fluorine F- and Lithium li+” (priority 1987, dated 1998).
# Read-outs that look alike come from different tables or passages of the source.
# Experiments:
# Type in all cases: cell-based
# Pseudomonas aeruginosa [1] = assay: Resistance of Pseudomonas aeruginosa to antiseptics in terms of water hardness and proteins;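 also: R means colony growth observed and S means no significant growth; key: R: resistant (a growth of colonies was observed); S: sensitive (no significant growth was observed)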
# Procedure: The resistance of Pseudomonas aeruginosa to various reputedly bactericidal active principles or commercial antiseptics was studied in terms of the hardness of the water and the presence or absence of proteins. The same trial was carried out on the foaming paste according to the invention (see Example 15).
# Pseudomonas aeruginosa [2] = assay: MIC of antibiotics by microdilution in liquid medium on plates (Example 18); conditions: for MIC: Pseudomonas aeruginosa, read-out: MIC (average MIC value)
# Procedure: The unicellular living organism chosen for the trials is Pseudomonas aeruginosa (wild-type strain originating from hospital sources).
# The same methodology as for Examples 11 and 12 was follows. Bacteriostatic analyses were performed with a number of antibiotics belonging to benzylpenicillins, and aminopenicillins, and first and second generation cephalosporins, namely:
# The determination of the MIC was carried out by the microdilution method in liquid medium on plates. Aqueous solutions of each antibiotic are prepared in MUELLER HINION broth, to obtain dilutions in a geometric ratio of 2. The solvent is sterile double-distilled water.
# The preparation of the bacterial inoculum is made with a culture of Pseudomonas aeruginosa, with agitation on a water bath at 37° C. for 4 to 6 hours, giving 10^6 bacteria/ml.
# Three trials were performed per antibiotic and per bacterial inoculum. The trials were performed first with the antibiotics alone (trials a).sctn., and then with the addition of a dose of 1 mg/l of an aqueous solution of lithium fluoride (trials b).sctn. to the dilution of each one in every cup of every plate.
# spermatozoa = assay: SANDERS-CRAMER total spermicidal test according to IPPF standards; conditions: in words
# [3] = + LiF 1 mg/l, strain lic R βLac^+ OXA
# [4] = + LiF 1 mg/l, strain lic R βLac^+ PSE
# [5] = + LiF 1 mg/l, strain lic R βLac^+ TEM
# [6] = + LiF 1 mg/l, strain lic R βLac^+ cephalosporinase
# [7] = + LiF 1 mg/l, strain lic S βLac^- (first column)
# [8] = + LiF 1 mg/l, strain lic S βLac^- (second column)
# [9] = alone, strain lic R βLac^+ cephalosporinase
# [10] = alone, strain lic S βLac^- (first column)
# [11] = alone, strain lic S βLac^- (second column)
Compound,MIC (Pseudomonas aeruginosa [2]; [3]) [µg/mL],MIC (Pseudomonas aeruginosa [2]; [4]) [µg/mL],MIC (Pseudomonas aeruginosa [2]; [5]) [µg/mL],MIC (Pseudomonas aeruginosa [2]; [6]) [µg/mL],MIC (Pseudomonas aeruginosa [2]; [7]) [µg/mL],MIC (Pseudomonas aeruginosa [2]; [8]) [µg/mL],"MIC (Pseudomonas aeruginosa [2]; alone, strain lic R βLac^+ OXA) [µg/mL]","MIC (Pseudomonas aeruginosa [2]; alone, strain lic R βLac^+ PSE) [µg/mL]","MIC (Pseudomonas aeruginosa [2]; alone, strain lic R βLac^+ TEM) [µg/mL]",MIC (Pseudomonas aeruginosa [2]; [9]) [µg/mL],MIC (Pseudomonas aeruginosa [2]; [10]) [µg/mL],MIC (Pseudomonas aeruginosa [2]; [11]) [µg/mL],further results
C=O [Formaldehyde],–,–,–,–,–,–,–,–,–,–,–,–,"resistance (Pseudomonas aeruginosa [1]; 0.2 ml inoculum, contact time 10 mn, distilled water, P+): S; resistance (Pseudomonas aeruginosa [1]; 0.2 ml inoculum, contact time 10 mn, distilled water, P-): S; resistance (Pseudomonas aeruginosa [1]; 0.2 ml inoculum, contact time 10 mn, hard water, P+): S; resistance (Pseudomonas aeruginosa [1]; 0.2 ml inoculum, contact time 10 mn, hard water, P-): S; resistance (Pseudomonas aeruginosa [1]; 0.4 ml inoculum, contact time 20 mn, distilled water, P+): S; resistance (Pseudomonas aeruginosa [1]; 0.4 ml inoculum, contact time 20 mn, distilled water, P-): S; resistance (Pseudomonas aeruginosa [1]; 0.4 ml inoculum, contact time 20 mn, hard water, P+): S; resistance (Pseudomonas aeruginosa [1]; 0.4 ml inoculum, contact time 20 mn, hard water, P-): S; resistance (Pseudomonas aeruginosa [1]; 0.6 ml inoculum, contact time 30 mn, distilled water, P+): S; resistance (Pseudomonas aeruginosa [1]; 0.6 ml inoculum, contact time 30 mn, distilled water, P-): S; resistance (Pseudomonas aeruginosa [1]; 0.6 ml inoculum, contact time 30 mn, hard water, P+): S; resistance (Pseudomonas aeruginosa [1]; 0.6 ml inoculum, contact time 30 mn, hard water, P-): S"
"CO/N=C(\C(=O)N[C@@H]1C(=O)N2C(C(=O)O)=C(CSc3nc(=O)c(=O)[nH]n3C)CS[C@H]12)c1csc(N)n1 [CEFTRIAXONE, ceftriaxone]",32,16,32,128,8,16,32,32,32,256,16,32,–
"CCN1CCN(C(=O)N[C@@H](C(=O)N[C@@H]2C(=O)N3[C@@H]2SC(C)(C)[C@@H]3C(=O)O)c2ccccc2)C(=O)C1=O [PIPERACILLIN, piperacillin]",64,64,64,128,8,8,64,128,64,128,8,16,–
CC1(C)S[C@@H]2[C@H](NC(=O)[C@H](C(=O)O)c3ccsc3)C(=O)N2[C@H]1C(=O)O [ticarcillin],–,–,–,–,–,–,512,4100,1020,256,32,512,"number of strains resistant, of 958 strains tested (Pseudomonas aeruginosa [2]): 235"
"CC1(C)S[C@@H]2[C@H](NC(=O)[C@H](NC(=O)c3cnc4cccnc4c3O)c3ccccc3)C(=O)N2[C@H]1C(=O)O [APALCILLIN, apalcillin]",32,32,8,16,2,8,32,64,16,16,4,16,–
[Li+] [Li^+ ions],–,–,–,–,–,–,–,–,–,–,–,–,spermicidal effect (spermatozoa): A spermicidal effect
